Assay results as given in patent US20080009418A1, “Selective Inhibitors” (Alchemia LTD., priority 2004, published 2008).

Key:
[1] = biological target: T1, Human neuropeptide Y (NPY-Y1) (Homo sapiens, UniProt P25929); test: Radioligand binding, human neuropeptide Y NPY-Y1 membranes, FlashPlate, [125I]-PYY; settings: compound at 10 μM; for A9: inhibition of radioligand binding: [125I]-PYY
T1 construct: purchased Perkin Elmer Biosignal
T1 sequence (P25929 1-384): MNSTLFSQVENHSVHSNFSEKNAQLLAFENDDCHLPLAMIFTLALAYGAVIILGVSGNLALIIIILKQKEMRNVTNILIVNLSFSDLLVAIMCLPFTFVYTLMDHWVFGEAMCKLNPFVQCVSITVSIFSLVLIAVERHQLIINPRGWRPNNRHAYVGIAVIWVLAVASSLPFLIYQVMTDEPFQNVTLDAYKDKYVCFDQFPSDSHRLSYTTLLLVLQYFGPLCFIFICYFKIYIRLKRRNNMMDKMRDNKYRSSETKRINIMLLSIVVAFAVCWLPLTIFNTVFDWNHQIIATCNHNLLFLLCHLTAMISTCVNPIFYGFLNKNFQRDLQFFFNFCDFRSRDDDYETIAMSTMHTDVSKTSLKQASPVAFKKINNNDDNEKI
Outline: (§1)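 Cloned human receptor membranes were coated onto FlashPlate wells and incubated with radioligand and compound (added from a 0.5 mM DMSO daughter plate) for 1 hour at room temperature in the dark. Scintillation counting gave percent inhibition, with DMSO defining total and reference ligand defining non-specific binding.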

[2] = biological target: T2, Human opioid (ORL1) (Homo sapiens, UniProt P41146); test: Radioligand binding, human opioid ORL1 membranes, FlashPlate, [125I]-Nociceptin; settings: compound at 10 μM; for A10: inhibition of radioligand binding: [125I]-Nociceptin
T2 construct: purchased Perkin Elmer Biosignal
T2 sequence (P41146 whole entry): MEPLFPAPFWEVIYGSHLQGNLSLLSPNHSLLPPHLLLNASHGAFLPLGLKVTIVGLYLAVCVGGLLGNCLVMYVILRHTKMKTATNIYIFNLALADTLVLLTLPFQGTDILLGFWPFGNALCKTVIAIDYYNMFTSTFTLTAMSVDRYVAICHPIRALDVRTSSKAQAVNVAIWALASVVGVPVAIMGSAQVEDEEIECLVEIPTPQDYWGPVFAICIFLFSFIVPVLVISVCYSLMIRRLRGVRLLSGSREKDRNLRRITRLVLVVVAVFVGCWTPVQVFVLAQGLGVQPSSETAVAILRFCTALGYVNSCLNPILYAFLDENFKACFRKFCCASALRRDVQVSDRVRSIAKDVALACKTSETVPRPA
Outline: as §1

[3] = biological target: T3, Human melanocortin (MC5) (Homo sapiens, UniProt P33032); test: Radioligand binding, human melanocortin MC5 membranes, FlashPlate, [125I]-NDP-αMSH; settings: compound at 10 μM; for A5: inhibition of radioligand binding: [125I]-NDP-αMSH
T3 construct: purchased Perkin Elmer Biosignal
T3 sequence (P33032 whole entry): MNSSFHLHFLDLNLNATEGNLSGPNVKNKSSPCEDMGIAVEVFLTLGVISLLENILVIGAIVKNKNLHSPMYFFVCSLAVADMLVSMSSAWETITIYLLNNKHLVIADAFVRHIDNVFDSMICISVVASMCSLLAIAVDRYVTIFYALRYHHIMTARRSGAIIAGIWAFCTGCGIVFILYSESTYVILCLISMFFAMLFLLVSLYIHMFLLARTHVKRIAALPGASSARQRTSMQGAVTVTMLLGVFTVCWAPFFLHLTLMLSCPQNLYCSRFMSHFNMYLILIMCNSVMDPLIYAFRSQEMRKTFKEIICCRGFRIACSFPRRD
Outline: as §1

[4] = biological target: T4, Human κ-Opioid (KOP) (Homo sapiens, UniProt P41145); test: Radioligand binding, human κ-opioid (KOP) membranes, filtration, [3H]-Diprenorphine; settings: compound at 10 μM; for A2: inhibition of radioligand binding: [3H]-Diprenorphine
T4 construct: purchased Perkin Elmer Biosignal
T4 sequence (P41145 whole entry): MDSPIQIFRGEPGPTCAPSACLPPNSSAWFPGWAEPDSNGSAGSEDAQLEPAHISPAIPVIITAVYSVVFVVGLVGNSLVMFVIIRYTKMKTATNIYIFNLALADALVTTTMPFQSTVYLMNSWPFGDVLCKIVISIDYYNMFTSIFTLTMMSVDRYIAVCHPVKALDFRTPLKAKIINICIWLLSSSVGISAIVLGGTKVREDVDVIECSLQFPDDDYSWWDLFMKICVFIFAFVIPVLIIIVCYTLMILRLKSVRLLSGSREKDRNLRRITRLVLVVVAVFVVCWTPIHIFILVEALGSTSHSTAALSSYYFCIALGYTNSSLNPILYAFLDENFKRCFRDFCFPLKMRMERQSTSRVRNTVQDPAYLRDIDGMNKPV
Outline: (§2)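 Membranes from cloned human receptors were incubated with compound and radioligand for 1 hour at room temperature. Bound ligand was collected on 0.3% PEI-soaked filters, washed with cold 50 mM Tris-HCl pH 7.4, and counted by scintillation. Percent inhibition was computed against DMSO totals and reference-ligand nonspecific wells.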

[5] = biological target: T5, Human δ-opioid (DOP) (Homo sapiens, UniProt P41143); test: Radioligand binding, human δ-opioid (DOP) membranes, FlashPlate, [3H]-Bremazocine; settings: compound at 10 μM; for A1: inhibition of radioligand binding: [3H]-Bremazocine
T5 construct: purchased Perkin Elmer Biosignal
T5 sequence (P41143 whole entry): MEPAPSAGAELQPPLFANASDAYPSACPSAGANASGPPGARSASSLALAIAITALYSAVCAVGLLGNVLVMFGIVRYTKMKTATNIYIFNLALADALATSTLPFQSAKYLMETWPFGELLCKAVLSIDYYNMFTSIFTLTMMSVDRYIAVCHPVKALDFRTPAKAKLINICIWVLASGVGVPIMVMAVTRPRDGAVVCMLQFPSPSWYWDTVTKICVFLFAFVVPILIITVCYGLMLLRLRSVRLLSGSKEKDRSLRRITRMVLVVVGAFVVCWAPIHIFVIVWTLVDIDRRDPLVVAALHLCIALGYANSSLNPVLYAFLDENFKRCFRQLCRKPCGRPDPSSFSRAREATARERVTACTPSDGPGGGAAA
Outline: as §1

[6] = biological target: T6, Human μ-opioid (MOP) (Homo sapiens, UniProt P35372); test: Radioligand binding, human μ-opioid (MOP) membranes, FlashPlate, [3H]-Naloxone; settings: compound at 10 μM; for A7: inhibition of radioligand binding: [3H]-Naloxone
T6 construct: purchased Perkin Elmer Biosignal
T6 sequence (P35372 whole entry): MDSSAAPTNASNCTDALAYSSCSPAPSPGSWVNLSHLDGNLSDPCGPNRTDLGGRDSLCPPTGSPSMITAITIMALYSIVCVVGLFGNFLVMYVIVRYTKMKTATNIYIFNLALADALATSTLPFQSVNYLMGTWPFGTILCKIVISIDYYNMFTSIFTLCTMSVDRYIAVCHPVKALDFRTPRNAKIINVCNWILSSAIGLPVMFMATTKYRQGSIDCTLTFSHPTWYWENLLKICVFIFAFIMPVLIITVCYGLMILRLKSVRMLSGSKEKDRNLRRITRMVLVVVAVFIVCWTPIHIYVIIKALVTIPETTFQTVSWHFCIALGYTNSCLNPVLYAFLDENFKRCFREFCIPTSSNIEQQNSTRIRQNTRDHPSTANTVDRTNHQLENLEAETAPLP
Outline: as §1

[7] = biological target: T7, Human neurokinin (NK1) (Homo sapiens, UniProt P25103); test: Radioligand binding, human neurokinin NK1 membranes, filtration, [125I]-Substance P; settings: compound at 10 μM; for A8: inhibition of radioligand binding: [125I]-Substance P
T7 construct: purchased Perkin Elmer Biosignal
T7 sequence (P25103 whole entry): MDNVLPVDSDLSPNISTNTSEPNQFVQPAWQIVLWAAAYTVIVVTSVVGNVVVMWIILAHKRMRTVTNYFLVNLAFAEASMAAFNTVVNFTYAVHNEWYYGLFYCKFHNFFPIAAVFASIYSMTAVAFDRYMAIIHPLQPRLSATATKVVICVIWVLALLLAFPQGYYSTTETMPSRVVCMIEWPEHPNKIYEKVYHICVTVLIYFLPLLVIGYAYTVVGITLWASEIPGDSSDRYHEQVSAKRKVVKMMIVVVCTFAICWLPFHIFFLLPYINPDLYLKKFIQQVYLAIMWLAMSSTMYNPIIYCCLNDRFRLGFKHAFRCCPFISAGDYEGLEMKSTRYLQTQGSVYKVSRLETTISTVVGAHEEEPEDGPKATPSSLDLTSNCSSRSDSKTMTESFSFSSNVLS
Outline: as §2

[8] = biological target: T8, Human Melanocortin (MC3) (Homo sapiens, UniProt P41968); test: Radioligand binding, human melanocortin MC3 membranes, FlashPlate, [125I]-NDP-αMSH; settings: compound at 10 μM; for A3: inhibition of radioligand binding: [125I]-NDP-αMSH
T8 construct: purchased Perkin Elmer Biosignal
T8 sequence (P41968 whole entry): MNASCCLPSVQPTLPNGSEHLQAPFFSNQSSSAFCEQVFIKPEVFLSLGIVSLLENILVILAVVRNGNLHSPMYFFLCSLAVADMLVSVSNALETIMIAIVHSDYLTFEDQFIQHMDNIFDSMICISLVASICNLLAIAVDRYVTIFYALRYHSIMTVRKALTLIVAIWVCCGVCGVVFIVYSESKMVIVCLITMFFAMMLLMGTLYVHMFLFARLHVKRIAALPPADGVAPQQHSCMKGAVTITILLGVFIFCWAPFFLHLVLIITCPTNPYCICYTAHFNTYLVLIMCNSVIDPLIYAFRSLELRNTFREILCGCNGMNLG
Outline: as §1

[9] = biological target: T9, Human Melanocortin (MC4) (Homo sapiens, UniProt P32245); test: Radioligand binding, human melanocortin MC4 membranes, FlashPlate, [125I]-NDP-αMSH; settings: compound at 10 μM; for A4: inhibition of radioligand binding: [125I]-NDP-αMSH
T9 construct: purchased Perkin Elmer Biosignal
T9 sequence (P32245 whole entry): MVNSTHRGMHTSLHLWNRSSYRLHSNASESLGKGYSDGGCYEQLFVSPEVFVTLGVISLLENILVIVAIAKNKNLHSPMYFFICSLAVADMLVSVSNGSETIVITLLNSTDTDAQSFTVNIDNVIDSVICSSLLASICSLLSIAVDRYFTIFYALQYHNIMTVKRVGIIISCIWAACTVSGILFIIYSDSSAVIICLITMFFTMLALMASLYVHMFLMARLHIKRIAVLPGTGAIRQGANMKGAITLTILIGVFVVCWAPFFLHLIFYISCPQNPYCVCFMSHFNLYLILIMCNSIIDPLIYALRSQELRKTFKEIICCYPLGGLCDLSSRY
Outline: as §1

[10] = biological target: T10, Mouse urotensin (mUR2) (Mus musculus, UniProt Q8VIH9); test: Radioligand binding, mouse urotensin mUR2 membranes, FlashPlate, [125I]-Urotensin II; settings: compound at 10 μM; for A11: inhibition of radioligand binding: [125I]-Urotensin II
T10 construct: purchased Perkin Elmer Biosignal
T10 sequence (Q8VIH9 1-385): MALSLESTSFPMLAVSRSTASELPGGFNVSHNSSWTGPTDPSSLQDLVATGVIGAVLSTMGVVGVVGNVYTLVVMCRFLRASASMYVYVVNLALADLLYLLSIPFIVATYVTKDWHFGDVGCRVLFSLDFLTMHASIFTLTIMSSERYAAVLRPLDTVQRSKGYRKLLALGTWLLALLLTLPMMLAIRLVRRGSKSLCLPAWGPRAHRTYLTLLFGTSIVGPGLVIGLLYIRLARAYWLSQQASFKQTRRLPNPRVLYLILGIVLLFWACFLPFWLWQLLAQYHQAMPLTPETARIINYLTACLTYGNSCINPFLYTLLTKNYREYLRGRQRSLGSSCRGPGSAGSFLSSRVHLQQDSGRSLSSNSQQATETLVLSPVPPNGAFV
Outline: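 Cloned mouse urotensin (mUR2) receptor membranes from Perkin Elmer Biosignal were immobilized in FlashPlate microplates using a proprietary coating. Each well got 19.5 μl buffer, then 0.5 μl of DMSO, reference ligand, or compound. Adding 5 μl of [125I]-Urotensin II, diluted to 5× final concentration in binding buffer, started binding. Plates were sealed with TopSeal-A and incubated 1 hour at room temperature in the dark. Wells were counted for 30 seconds each on a TopCount after a 60-second delay, and percentage inhibition was calculated.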

[11] = biological target: T11, Human melanin-concentrating hormone (MCH1) (Homo sapiens, UniProt Q99705); test: Radioligand binding, human melanin-concentrating hormone MCH1 membranes, FlashPlate, [125I]-S36057; settings: compound at 10 μM
T11 construct: purchased Perkin Elmer Biosignal
T11 sequence (Q99705 whole entry): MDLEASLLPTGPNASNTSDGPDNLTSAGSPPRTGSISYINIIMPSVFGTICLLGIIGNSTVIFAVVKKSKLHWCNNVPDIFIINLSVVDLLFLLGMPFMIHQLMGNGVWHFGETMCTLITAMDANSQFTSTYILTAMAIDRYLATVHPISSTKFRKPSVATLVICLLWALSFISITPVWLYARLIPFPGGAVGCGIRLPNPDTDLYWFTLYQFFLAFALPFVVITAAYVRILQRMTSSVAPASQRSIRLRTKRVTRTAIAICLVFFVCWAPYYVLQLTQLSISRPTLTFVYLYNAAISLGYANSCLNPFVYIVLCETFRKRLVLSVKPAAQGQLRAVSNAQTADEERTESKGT
Outline: as §1

Row | SMILES | A9: inhibition of radioligand binding ([1]; FlashPlate) | A10: inhibition of radioligand binding ([2]; FlashPlate) | A5: inhibition of radioligand binding ([3]; FlashPlate) | A2: inhibition of radioligand binding ([4]; filtration) | A1: inhibition of radioligand binding ([5]; FlashPlate) | A7: inhibition of radioligand binding ([6]; FlashPlate) | A8: inhibition of radioligand binding ([7]; filtration) | A3: inhibition of radioligand binding ([8]; FlashPlate) | A4: inhibition of radioligand binding ([9]; FlashPlate) | A11: inhibition of radioligand binding ([10]; FlashPlate) | A6: inhibition of radioligand binding ([11]; [125I]-S36057, FlashPlate) | A9: inhibition of radioligand binding ([1]; human NPY-Y1 membranes) | A1: inhibition of radioligand binding ([5]; human DOP membranes) | A8: inhibition of radioligand binding ([7]; human NK1 membranes) | A11: inhibition of radioligand binding ([10]; mouse mUR2 membranes) | also measured
1 | CSC1O[C@H](COCc2ccc3ccccc3c2)[C@@H](O)[C@@H](OCc2ccc(Cl)cc2)[C@H]1NC(=O)CCN (stereo partly shown) [compound 282] | − (“−” indicates less than 50% inhibition at 10 μM) | − (“−” indicates less than 50% inhibition at 10 μM) | − (“−” indicates less than 50% inhibition at 10 μM) | − (“−” indicates less than 50% inhibition at 10 μM) | − (“−” indicates less than 50% inhibition at 10 μM) | − (“−” indicates less than 50% inhibition at 10 μM) | + (“+” indicates greater than 50% inhibition at 10 μM) | − (“−” indicates less than 50% inhibition at 10 μM) | + (“+” indicates greater than 50% inhibition at 10 μM) | − (“−” indicates less than 50% inhibition at 10 μM) | − (“−” indicates less than 50% inhibition at 10 μM) | – | – | – | – | –
2 | CO[C@H]1[C@H](O)[C@@H](COCc2ccccc2)OC(OCc2ccc(-c3ccccc3)cc2)[C@@H]1NC(=O)CCNC(=N)N (stereo partly shown) [compound 59] | – | – | – | – | – | – | – | – | – | – | – | – | – | – | – | A9 radioligand binding inhibition ([1]; human NPY-Y1 membranes): − (“−” indicates less than 50% inhibition at 10 μM); A10 radioligand binding inhibition ([2]; human ORL1 membranes): − (“−” indicates less than 50% inhibition at 10 μM); A5 radioligand binding inhibition ([3]; human melanocortin MC5 membranes): + (“+” indicates greater than 50% inhibition at 10 μM); A2 radioligand binding inhibition ([4]; human κ-opioid (KOP) membranes): + (“+” indicates greater than 50% inhibition at 10 μM); A1 radioligand binding inhibition ([5]; human δ-opioid (DOP) membranes): − (“−” indicates less than 50% inhibition at 10 μM); A7 radioligand binding inhibition ([6]; human μ-opioid (MOP) membranes): + (“+” indicates greater than 50% inhibition at 10 μM); A8 radioligand binding inhibition ([7]; human neurokinin NK1 membranes): + (“+” indicates greater than 50% inhibition at 10 μM); A3 radioligand binding inhibition ([8]; human melanocortin MC3 membranes): − (“−” indicates less than 50% inhibition at 10 μM); A4 radioligand binding inhibition ([9]; human melanocortin MC4 membranes): − (“−” indicates less than 50% inhibition at 10 μM); A11 radioligand binding inhibition ([10]; mouse urotensin mUR2 membranes): − (“−” indicates less than 50% inhibition at 10 μM); A6 radioligand binding inhibition ([11]; human MCH1 membranes): − (“−” indicates less than 50% inhibition at 10 μM)
3 | NCCC(=O)N[C@H]1C(OCc2ccc3ccccc3c2)O[C@H](COCc2ccc3ccccc3c2)[C@@H](O)[C@@H]1OCc1ccc(Cl)cc1 (stereo partly shown) [compound 437] | – | – | – | – | – | – | – | – | – | – | – | − (“−” indicates less than 50% inhibition at 10 μM) | − (“−” indicates less than 50% inhibition at 10 μM) | + (“+” indicates greater than 50% inhibition at 10 μM) | − (“−” indicates less than 50% inhibition at 10 μM) | A10: inhibition of radioligand binding ([2]; human ORL1 membranes): − (“−” indicates less than 50% inhibition at 10 μM); A5: inhibition of radioligand binding ([3]; human MC5 membranes): + (“+” indicates greater than 50% inhibition at 10 μM); A2: inhibition of radioligand binding ([4]; human KOP membranes): − (“−” indicates less than 50% inhibition at 10 μM); A7: inhibition of radioligand binding ([6]; human MOP membranes): − (“−” indicates less than 50% inhibition at 10 μM); A3: inhibition of radioligand binding ([8]; human MC3 membranes): + (“+” indicates greater than 50% inhibition at 10 μM); A4: inhibition of radioligand binding ([9]; human MC4 membranes): + (“+” indicates greater than 50% inhibition at 10 μM); A6: inhibition of radioligand binding ([11]; [125I]-S36057, human MCH1 membranes): + (“+” indicates greater than 50% inhibition at 10 μM)
4 | CSC1OC(COCc2ccccc2)C(O)C(OCc2ccc(Cl)cc2)C1NC(=O)CCNC(=N)N (stereo not shown) [compound 267] | − (“−” indicates less than 50% inhibition at 10 μM) | − (“−” indicates less than 50% inhibition at 10 μM) | − (“−” indicates less than 50% inhibition at 10 μM) | − (“−” indicates less than 50% inhibition at 10 μM) | − (“−” indicates less than 50% inhibition at 10 μM) | − (“−” indicates less than 50% inhibition at 10 μM) | + (“+” indicates greater than 50% inhibition at 10 μM) | − (“−” indicates less than 50% inhibition at 10 μM) | + (“+” indicates greater than 50% inhibition at 10 μM) | − (“−” indicates less than 50% inhibition at 10 μM) | − (“−” indicates less than 50% inhibition at 10 μM) | – | – | – | – | –
5 | NCCC(=O)N[C@H]1C(OCc2ccc3ccccc3c2)O[C@H](COCc2ccccc2)[C@@H](O)[C@@H]1OCc1ccc2ccccc2c1 (stereo partly shown) [compound 445] | – | – | – | – | – | – | – | – | – | – | – | − (“−” indicates less than 50% inhibition at 10 μM) | − (“−” indicates less than 50% inhibition at 10 μM) | + (“+” indicates greater than 50% inhibition at 10 μM) | − (“−” indicates less than 50% inhibition at 10 μM) | A10: inhibition of radioligand binding ([2]; human ORL1 membranes, 10 µM): + (“+” indicates greater than 50% inhibition at 10 μM); A5: inhibition of radioligand binding ([3]; human MC5 membranes, 10 µM): + (“+” indicates greater than 50% inhibition at 10 μM); A2: inhibition of radioligand binding ([4]; human KOP membranes, 10 µM): + (“+” indicates greater than 50% inhibition at 10 μM); A7: inhibition of radioligand binding ([6]; human MOP membranes, 10 µM): + (“+” indicates greater than 50% inhibition at 10 μM); A3: inhibition of radioligand binding ([8]; human MC3 membranes, 10 µM): + (“+” indicates greater than 50% inhibition at 10 μM); A4: inhibition of radioligand binding ([9]; human MC4 membranes, 10 µM): + (“+” indicates greater than 50% inhibition at 10 μM); A6: inhibition of radioligand binding ([11]; [125I]-S36057, human MCH1 membranes, 10 µM): + (“+” indicates greater than 50% inhibition at 10 μM)
